{"source": "patent US20260199371A1", "about": "“COORDINATION COMPOUND, COMPOSITIONS, AND USES THEREOF FOR TREATING CANCERS” (HUEIYUAN BIOTECH LLC, priority 2023, published 2026)", "key": {"BEAS-2B cells": {"test_system": "BEAS-2B cells", "settings": "0-800 μg/ml, 24 hours", "protocol": "(§1) BEAS-2B cells (95102433, Sigma-Aldrich) were cultured in LHC-9 medium (Gibco™, Thermo Fisher Scientific, Waltham, MA, USA)."}, "CL1-parental cells": {"test_system": "CL1-parental cells", "settings": "0-1600 μg/ml, 24 hours", "protocol": "as §1"}, "[1]": {"test_system": "gemcitabine-resistant CL1 cells (CL1-GEMR cells)", "settings": "0-1600 μg/ml, 24 hours", "protocol": "as §1"}, "[2]": {"test_system": "LoVo-OXAR cells tumor xenograft", "protocol": "(§2) Six-week-old male NU/NU mice were purchased from Bio LASCO Taiwan Co., Ltd (Taipei, Taiwan) and randomly assigned into four groups (Groups 1 to 4), each containing three mice. […] Tumor volume and mice body weight were measured every three days. […] All mice were sacrificed on day 21, and the tumors were excised and weighed.\n(§3) Moreover, the LoVo-parental and LoVo-OXAR tumor tissues were collected and subject to TUNEL assay."}, "[3]": {"test_system": "LoVo-parental cells tumor xenograft", "protocol": "as §2, §3"}, "LoVo-OXAR cells [4]": {"test_system": "LoVo-OXAR cells", "settings": "high dose 100 mg/kg/day orally, compared to low dose 10 mg/kg/day", "text": "(§4) Six-week-old male NU/NU mice were purchased from Bio LASCO Taiwan Co., Ltd (Taipei, Taiwan) and randomly assigned into six groups (Groups 1 to 6), each containing three mice. […] All mice were sacrificed on day 30, and the mouse lung, kidney, spleen, and heart were examined for metastatic cancer cells."}, "LoVo-parental cells [5]": {"test_system": "LoVo-parental cells", "settings": "high dose 100 mg/kg/day orally, compared to low dose 10 mg/kg/day", "text": "as §4"}, "HA22T-parental cells": {"test_system": "HA22T-parental cells", "settings": "24 hours"}, "HA22T-HDACiR cells": {"test_system": "HA22T-HDACiR cells", "settings": "0-1250 μg/ml, 24 hours"}, "143B cells": {"test_system": "143B cells", "test": "MTT assay, viability of 143B cells", "type": "cell-based, human", "settings": "24 hours", "protocol": "Human osteosarcoma 143B cells (commercially available from ATCC under the number CRL-8303) were cultured in DMEM supplemented with 10% FBS and 1% sodium pyruvate."}, "GBM 8401 cells": {"test_system": "GBM 8401 cells", "settings": "0-1800 μg/ml, 24 hours", "protocol": "Human brain glioblastoma multiforme GBM 8401 cells (commercially available from BCRC under the number BCRC 60163) were cultured in RPMI 1640 medium supplemented with 10% FBS."}, "MDA-MB231 cells": {"test_system": "MDA-MB231 cells", "settings": "0-3000 μg/ml, 24 hours; effect more prominent than in T-47D", "protocol": "(§5) Human breast cancer cells T-47D (commercially available from ATCC under the number HTB-133) and MDA-MB231 (commercially available from ATCC under the number HTB-26) were cultured in RPMI 1640 medium supplemented with 10% FBS."}, "T-47D cells": {"test_system": "T-47D cells", "settings": "0-3000 μg/ml, 24 hours", "protocol": "as §5"}, "T24 cells": {"test_system": "T24 cells", "settings": "0-1600 μg/ml, 24 hours", "protocol": "Human bladder carcinoma T24 cells (commercially available from ATCC under the number HTB-4) were cultured in RPMI 1640 medium supplemented with 10% FBS."}, "CP70 cells": {"test_system": "CP70 cells", "settings": "0-1600 μg/ml, 24 hours"}, "Jurkat cells": {"test_system": "Jurkat cells", "settings": "0-1600 μg/ml, 24 hours", "protocol": "Human T-acute lymphoblastic leukemia Jurkat cells (resistant to cisplatin and commercially available from ATCC under the number TIB-512) were cultured in RPMI 1640 medium supplemented with 10% FBS."}, "HeLa cells": {"test_system": "HeLa cells", "settings": "0.5-1000 μg/ml, 48 hours", "protocol": "Human cervical carcinoma HeLa cells (commercially available from ATCC under the number CCL-2) were cultured in DMEM supplemented with 10% FBS."}, "TT cells": {"test_system": "TT cells", "settings": "0.1-1000 μg/ml, 72 hours", "protocol": "Human medullary thyroid carcinoma TT cells (commercially available from ATCC under the number CRL-1803) were cultured in F12K medium (Gibco™, Thermo Fisher Scientific, Waltham, MA, USA) supplemented with 10% FBS."}, "LoVo-parental cells [6]": {"test_system": "LoVo-parental cells", "settings": "24 hours"}, "LoVo-OXAR cells [7]": {"test_system": "LoVo-OXAR cells", "settings": "24 hours"}, "LoVo-parental cells [8]": {"test_system": "LoVo-parental cells", "settings": "single agent: compound (II) 500 μg/ml or oxaliplatin 50 μg/ml, 48 hours"}, "[9]": {"test_system": "PANC-1 cells tumor xenograft", "test": "Subcutaneous PANC-1 tumor xenograft in C.B17/SCID mice", "settings": "for Change in body weight / TGI (%): oral; for TGI (%): 14 days, read 14 days after the treatment period"}, "[10]": {"settings": "Group 5: 150 mg/kg, twice a day"}}}
{"smiles": "CC(=O)[O-].CC(=O)[O-].CC(=O)[O-].CC(=O)[O-].CC(=O)[O-].CC(=O)[O-].O.O.O.O.O=[N+]([O-])[O-].[Cr+3].[Fe+3].[Fe+3].[OH-].[OH-]", "note": "[compound (II)]", "values": [{"measurement": "survival of non-tumorigenic BEAS-2B cells", "setting": "BEAS-2B cells", "value": "did not significantly inhibit the survival of BEAS-2B cells"}, {"measurement": "viability of CL1-parental cells", "setting": "CL1-parental cells", "value": "reduced the viability of both lung cancer cells in a dose-dependent manner"}, {"measurement": "viability of gemcitabine-resistant CL1 cells", "setting": "[1]", "value": "reduced the viability of both lung cancer cells in a dose-dependent manner"}, {"measurement": "apoptosis in tumors (TUNEL)", "setting": "[2]; LoVo-OXAR tumors", "value": "induced significantly higher apoptosis"}, {"measurement": "health of mice after treatment", "setting": "[2]; LoVo-OXAR xenograft, 100 mg/kg orally every three days", "value": "healthy"}, {"measurement": "tumor growth", "setting": "[2]; LoVo-OXAR xenograft, 100 mg/kg orally every three days, about three weeks", "value": "significantly reduced the tumor growth"}, {"measurement": "body weight of the mice", "setting": "[2]; LoVo-OXAR xenograft, day 1 to day 21, loss attributed to the tumor", "value": "body weight loss"}, {"measurement": "apoptosis in tumors (TUNEL)", "setting": "[3]; LoVo-parental tumors", "value": "induced significantly higher apoptosis"}, {"measurement": "health of mice after treatment", "setting": "[3]; LoVo-parental xenograft, 100 mg/kg orally every three days", "value": "healthy"}, {"measurement": "tumor growth", "setting": "[3]; LoVo-parental xenograft, 100 mg/kg orally every three days, about three weeks", "value": "significantly reduced the tumor growth"}, {"measurement": "body weight of the mice", "setting": "[3]; LoVo-parental xenograft, day 1 to day 21", "value": "remained constant"}, {"measurement": "metastasis to the lung, kidney, spleen, and heart", "setting": "LoVo-OXAR cells [4]", "value": "effectively inhibited the metastasis"}, {"measurement": "metastasis to the lung, kidney, spleen, and heart", "setting": "LoVo-parental cells [5]", "value": "effectively inhibited the metastasis"}, {"measurement": "viability of HA22T-parental cells", "setting": "HA22T-parental cells; 0-1250 μg/ml", "value": "reduced the viability of both liver cancer cells in a dose-dependent manner"}, {"measurement": "IC50 against HA22T-parental cells", "setting": "HA22T-parental cells; MTT", "value": "approximately 1000 μg/ml"}, {"measurement": "viability of HA22T-HDACiR cells", "setting": "HA22T-HDACiR cells", "value": "reduced the viability of both liver cancer cells in a dose-dependent manner"}, {"measurement": "viability of 143B cells", "setting": "143B cells; 0-4000 μg/ml", "value": "reduced the viability of the osteosarcoma cells in a dose-dependent manner"}, {"measurement": "IC50 against 143B cells", "setting": "143B cells; MTT", "value": "approximately 500 μg/ml"}, {"measurement": "viability of GBM 8401 cells", "setting": "GBM 8401 cells", "value": "reduced the viability of the glioblastoma cells in a dose-dependent manner"}, {"measurement": "viability of MDA-MB231 cells", "setting": "MDA-MB231 cells", "value": "reduced the viability of both breast cancer cells in a dose-dependent manner"}, {"measurement": "viability of T-47D cells", "setting": "T-47D cells", "value": "reduced the viability of both breast cancer cells in a dose-dependent manner"}, {"measurement": "viability of T24 cells", "setting": "T24 cells", "value": "reduced the viability of the bladder carcinoma cells in a dose-dependent manner"}, {"measurement": "viability of CP70 cells", "setting": "CP70 cells", "value": "reduced the viability of the ovarian cancer cells in a dose-dependent manner"}, {"measurement": "viability of Jurkat cells", "setting": "Jurkat cells", "value": "reduced the viability of the Jurkat cells in a dose-dependent manner"}, {"measurement": "viability of HeLa cells", "setting": "HeLa cells", "value": "reduced the viability of the metastatic Hela cells in a dose-dependent manner"}, {"measurement": "viability of TT cells", "setting": "TT cells", "value": "reduced the viability of the TT cells in a dose-dependent manner"}, {"measurement": "viability of LoVo-parental cells", "setting": "LoVo-parental cells [6]; 0-4000 μg/ml", "value": "reduced the viability of both colorectal cancer cells in a dose-dependent manner"}, {"measurement": "IC50 against LoVo-parental cells", "setting": "LoVo-parental cells [6]; MTT", "value": "about 500 μg/ml"}, {"measurement": "viability of LoVo-OXAR cells", "setting": "LoVo-OXAR cells [7]; 0-4000 μg/ml", "value": "reduced the viability of both colorectal cancer cells in a dose-dependent manner"}, {"measurement": "IC50 against LoVo-OXAR cells", "setting": "LoVo-OXAR cells [7]; MTT", "value": "about 2000 μg/ml"}, {"measurement": "migration rate of LoVo-parental cells", "setting": "LoVo-parental cells [8]", "value": "significantly decreased"}, {"measurement": "Change in body weight", "setting": "[9]; Group 3: 100 mg/kg, once a day", "value": "107 ± 5", "unit": "%"}, {"measurement": "TGI (%)", "setting": "[9]; Group 3: 100 mg/kg, once a day", "value": "51 ± 8", "unit": "%"}, {"measurement": "Change in body weight", "setting": "[9]; Group 4: 150 mg/kg, once a day", "value": "102 ± 3", "unit": "%"}, {"measurement": "TGI (%)", "setting": "[9]; Group 4: 150 mg/kg, once a day", "value": "51 ± 6", "unit": "%"}, {"measurement": "Change in body weight", "setting": "[9]; [10]", "value": "103 ± 4", "unit": "%"}, {"measurement": "TGI (%)", "setting": "[9]; [10]", "value": "88 ± 6", "unit": "%"}, {"measurement": "toxicity to mice at a therapeutically effective dose", "setting": "[9]; Groups 3-5", "value": "not toxic to mice"}, {"measurement": "body weight of the mice", "setting": "[9]; Groups 3-5, FIG. 20B", "value": "remained constant"}]}
